Results as given in patent publication US20240382612A1, “BIOACTIVE CONJUGATE, PREPARATION METHOD THEREFOR AND USE THEREOF” (priority 2017, published 2024).

Tests used:
Assay type in all cases: in vivo, Balb/c-nu mice
[1] = system: human breast cancer cell line HCC1806; assay: Experimental example 2: HCC1806 breast cancer subcutaneous xenograft, tumor inhibition; settings: 10 mg/kg, IV, BIW×3W
Procedure: (§1) Tumor-bearing mice (6 mice/group) with tumor volume of 100-200 mm^3 were randomly grouped (the number of groups was determined according to sample number). The administration volume was 10 ml/kg, and the administration route was tail intravenous injection. The mice were administered twice a week, and tumor diameter was measured with a vernier caliper, and tumor volume was calculated based on the following calculation formula: V=0.5 a×b^2, wherein a and b stand for the long diameter and short diameter of a tumor respectively. Animal deaths were observed and recorded every day.
(§2) The tumor growth inhibition rate TGI (%) was calculated from the following formula to evaluate tumor inhibitory effect of antibody drug conjugates:
(§3) Specifically, in the experimental examples 1 and 2, tumor-bearing mice models were constructed by subcutaneous xenograft of a human gastric cancer cell line NCI-N87 or a human triple negative breast cancer cell line HCC1806. After the tumor volume was about 100 mm^3, the mice were randomly grouped, and intravenously administered with BT001021 twice a week for a total of 6 times. Changes in tumor volume and animal body weight were measured twice a week to evaluate the efficacy (tumor inhibitory effect) of the antibody drug conjugate on tumor-bearing mice.
HCC1806 cells were cultured in a 1640 culture medium containing 10% fetal bovine serum at 37° C. and 5% CO2. HCC1806 cells in the exponential growth stage were collected, resuspended in PBS in a suitable concentration, and inoculated subcutaneously into female Balb/c-nu to construct breast cancer models. When the mean tumor volume was about 130 mm^3, the mice were randomly grouped into a physiological saline group, a BT001021 (10 mg/kg, IV, BIW×3W) group and a positive drug Immu-132 (10 mg/kg, IV, BIW×3W) group according to the tumor size, followed by tail intravenous injection of corresponding drugs twice a week for a total of […]. After administration, the tumor volume of the mice was observed and measured regularly.

[2] = system: human gastric cancer cell line NCI-N87; assay: Experimental example 1: NCI-N87 gastric cancer subcutaneous xenograft, tumor inhibition; settings: D21 after administration; IV, BIW×3W; BT001021 and Immu-132 3 mg/kg, toxins T-030 and SN-38 equimolar to ADC
Procedure: as §1, §2, §3
NCI-N87 cells were cultured in a 1640 culture medium containing 10% fetal bovine serum at 37° C. and 5% CO2. NCI-N87 cells in the exponential growth stage were collected, resuspended in PBS to a suitable concentration, and inoculated subcutaneously into female Balb/c-nu mice to construct gastric cancer models. When the mean tumor volume was about 90 mm^3, the mice were randomly grouped into a physiological saline group, a BT001021 (3 mg/kg, IV, BIW×3W) group, a positive drug Immu-132 (3 mg/kg, IV, BIW×3W) group, a T030 group and a SN38 group according to the tumor size, followed by tail intravenous injection of corresponding drugs twice a week for a total of 6 times. After administration, the tumor volume and body weight of the mice were observed and measured regularly.

[3] = system: human non-small cell lung cancer cell line HCC827; assay: Experimental example 3: HCC827 non-small cell lung cancer subcutaneous xenograft, tumor inhibition; settings: D21 after administration; 10 mg/kg, IV, BIW×3W
Procedure: as §1, §2
The experimental example 3 was used to evaluate the inhibitory effect of BT001021 and BT001035 on proliferation of tumor-bearing mice models constructed by subcutaneous xenograft human tumor cells of HCC827 non-small cell lung cancer. […] Then changes in tumor volume and animal body weight were measured twice a week to calculate the efficacy (tumor inhibitory effect) of BT001021 and BT001035 on the tumor-bearing mice.
HCC827 cells were cultured in a 1640 culture medium containing 10% fetal bovine serum at 37° C. and 5% CO2. […] After administration, the tumor volume and body weight of the mice were observed and measured regularly. […]

Substance: Immu-132: positive drug; ADC prepared according to example 2 of WO2015/012904A2, DAR=5.4
- tumor growth of xenograft model mice (result in words) [1]: did not show significant inhibitory activity
- Tumor Volume (mm^3) (x ± S) ([1]; D17 after administration): 2347.05 ± 317.79 mm^3
- Tumor growth inhibition rate (%) ([1]; D17 after administration): 11.62%
- Tumor Volume (mm^3) (x ± S) [2]: 259.04 ± 42.41 mm^3
- Tumor growth inhibition rate (%) [2]: 46.46%
- TGI (%) [3]: 85.19%
- Tumor Volume (mm^3) (x ± S) [3]: 145.94 ± 19.72 mm^3
